“And” between values parts separate entries of the source, which are not always exact repeats. Equal values may be shown once.
Assays:
[1] = biological target: T1, immobilized human sAC protein (Homo sapiens, UniProt Q96PN6); experiment: Surface plasmon resonance binding kinetics;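 note: Reference-channel response subtracted from active-channel response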; conditions: Fig. 1f
T1 construct: recombinant purified His-tagged sACt protein (50 μg/ml)
T1 sequence (Q96PN6 1-469 limits assumed): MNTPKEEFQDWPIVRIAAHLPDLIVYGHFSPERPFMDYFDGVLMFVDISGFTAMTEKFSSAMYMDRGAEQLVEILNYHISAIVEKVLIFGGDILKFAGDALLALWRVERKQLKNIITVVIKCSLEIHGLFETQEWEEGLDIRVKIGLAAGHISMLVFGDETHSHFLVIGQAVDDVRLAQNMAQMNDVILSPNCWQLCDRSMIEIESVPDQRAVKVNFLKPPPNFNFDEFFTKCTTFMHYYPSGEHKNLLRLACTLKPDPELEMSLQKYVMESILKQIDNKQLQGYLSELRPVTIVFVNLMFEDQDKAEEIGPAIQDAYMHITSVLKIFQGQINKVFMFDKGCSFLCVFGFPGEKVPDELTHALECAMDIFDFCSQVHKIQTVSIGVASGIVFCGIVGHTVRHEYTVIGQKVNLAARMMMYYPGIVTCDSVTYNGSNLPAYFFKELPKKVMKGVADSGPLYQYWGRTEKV
Method: Association and dissociation rate constants of sAC inhibitors were obtained with a Biacore 8K instrument (Cytiva) using a parallel kinetics protocol. Series S Sensor NTA chips (Cytiva) were prepared by applying recombinant purified His-tagged sACt protein (50 μg/ml) in PBS-P+ buffer (1 mM KH2PO4, 150 mM NaCl, 6 mM Na2HPO4, 0.05% (w/v) P20 Surfactant). The His-tagged sAC protein was captured via Ni^2+-His-tag chelation and covalently immobilized by amine coupling with a 1:1 mixture of 1-ethyl-3-(3-dimethylaminopropyl) carbodiimide and N-hydroxysuccinimide (active channels). After coupling, remaining reactive groups on the chip’s surface were blocked with 1 M ethanolamine followed by 350 mM EDTA to wash away any free Ni^2+. Following preparation, TBS-P+ running buffer (50 mM Tris, 150 mM NaCl, and 0.05% P20 Surfactant) supplemented with 1% DMSO was flowed over the surface of the chip until a stable baseline was obtained. For each sAC inhibitor, which were dissolved in DMSO and diluted in running buffer, increasing concentrations were injected into parallel channels for 120 s at a flow rate of 50 µl/min followed by running buffer for 600 s to allow for dissociation. All experiments included reference channels; i.e., inhibitor run over parallel channels without immobilized protein. […] Curves were fitted, and kon, KD, and koff values were determined using the Biacore 8K Insight Evaluation Software Version 2.0 (Cytiva) and a 1:1 binding kinetics model.

human sperm = experiment: cAMP generation in human sperm in vitro, incl. wash-out by dilution; type: cell-based; conditions: 30 minutes
Method: Samples of human semen were obtained from healthy volunteers with their prior written consent following a protocol approved by Weill Cornell Medicine’s Institutional Review Board (IRB 21-03023495). […] Semen was incubated for 30 min in a 37 °C incubator to liquefy. […] The tubes were incubated at a tilted angle of 45° at 37 °C for 60 min. Motile sperm were allowed to swim up into the HTF layer; immotile sperm and other cells or tissue debris remain in the ejaculate fraction. Up to 3 ml of the HTF layer was transferred to a fresh tube and washed twice in HTF by centrifugation (700 × g, 20 min). The supernatant was removed after the last centrifugation step and the sperm pellet was resuspended in 1 ml HTF. The purity and vitality of each sample was assessed via light microscopy. Sperm cell numbers were determined using a hemocytometer and adjusted to a concentration of 1 × 10^7 cells/ml.

mouse sperm [2] = experiment: Flagellar beat frequency of tethered mouse sperm; type: cell-based
Method: An inverted dark-field video microscope (IX73; Olympus) with a 10 x objective (mouse sperm) or a 20 x objective (human sperm) (UPLSAPO, NA 0.8; Olympus) was combined with a high-speed camera (ORCA Fusion; Hamamatsu). Dark-field videos were recorded with a frame rate of 200 Hz. The temperature of the heated stage was set to 37 °C (stage top incubator WSKMX; TOKAI HIT). The images were preprocessed with the ImageJ plugin SpermQ Preparator (Gaussian blur with sigma 0.5 px; subtract background method with radius 5 px) and analyzed using the ImageJ plugin SpermQ[57]. The beat frequency was determined from the highest peak in the frequency spectrum of the curvature time course, obtained by Fast Fourier Transform.

mouse sperm [3] = experiment: cAMP generation in mouse sperm in vitro, incl. wash-out by dilution; conditions: 12 minutes
Method: For capacitation, sperm were incubated for 90 min in TYH containing 3 mg/ml BSA and 25 mM NaHCO3 in a 37 °C incubator. To control for the consequences of dilution during isolation of epididymal mouse sperm for ex vivo assays, we assessed the ability of bicarbonate to induce a prototypical pattern of tyrosine phosphorylation (pY) which is a widely used molecular hallmark of capacitation[53]. Bicarbonate-induced pY is known to be sAC dependent in vitro[20],[22],[35]. For experiments studying sperm from injected mice, ‘swim out’ was performed in 200 μl TYH, which corresponded to a 1:10 dilution from epididymis (20 μg cauda in 200 μl buffer). Capacitation-induced changes were assessed by adding 50 µl of ‘swim out’ sperm to increasing volumes of capacitating TYH buffer.
cAMP generation was measured in mouse and human sperm. […] For human sperm, aliquots of 2 × 10^6 cells were incubated for 30 min in the presence or absence of sAC inhibitor in non-capacitating or capacitating HTF buffer. In both cases, 0.1% DMSO was used as vehicle control.
After 5 min, 150 µl of sperm/inhibitor mix was diluted into 1.35 ml non-capacitating or capacitating media with no inhibitor. […] Sperm lysates were centrifuged at 2000 × g for 3 min and the cAMP in the supernatant was acetylated and quantified using the Direct cAMP ELISA kit (Enzo).

epididymal mouse sperm [4] = experiment: Tyrosine phosphorylation (pY) Western blot of sperm from injected mice; conditions: 50 mg/kg i.p., 1 hour
Method: (§1) For capacitation, sperm were incubated for 90 min in TYH containing 3 mg/ml BSA and 25 mM NaHCO3 in a 37 °C incubator. To control for the consequences of dilution during isolation of epididymal mouse sperm for ex vivo assays, we assessed the ability of bicarbonate to induce a prototypical pattern of tyrosine phosphorylation (pY) which is a widely used molecular hallmark of capacitation[53]. […] For experiments studying sperm from injected mice, ‘swim out’ was performed in 200 μl TYH, which corresponded to a 1:10 dilution from epididymis (20 μg cauda in 200 μl buffer). Capacitation-induced changes were assessed by adding 50 µl of ‘swim out’ sperm to increasing volumes of capacitating TYH buffer.
Mouse sperm from vehicle- or inhibitor-injected mice were isolated 1 hour post injection from male mice injected (i.p.) with 150 µl of solution containing sAC inhibitor or vehicle. ‘Swim out’ sperm were diluted 1:1 to 1:100 in capacitating TYH media. As control, sperm from vehicle-injected mice were diluted 1:100 in non-capacitating and capacitating TYH buffer. The samples were incubated for 90 min, washed with 1 ml PBS and sedimented by centrifugation at 2000 × g for 3 min. The sedimented sperm were resuspended in 15 μl 2× Laemmli sample buffer, heated for 5 min at 95 °C, supplemented with 8 µl β-mercaptoethanol and heated again for 5 min at 95 °C. For Western blot analysis, proteins were transferred onto PVDF membranes (Thermo Scientific), probed with anti-phosphotyrosine (1:1000, clone 4G10, Merck Millipore) and anti-mouse IgG (1:10,000, Cell Signaling Technology) antibodies, and analyzed using a chemiluminescence detection system. Image lab (Bio-Rad) was used for densitometric analysis of western blots.

epididymal mouse sperm [5] = experiment: Ex vivo cAMP generation in epididymal sperm from inhibitor-treated male mice (oral or i.p.)
Method: as §1
Intracellular cAMP levels were quantified using the Direct cAMP ELISA kit (Enzo) as above.

[6] = sheet Fig. 2c replicates, 5 μM TDI-10229 or 10 nM TDI-11861 present
[7] = sheet Fig. 2d replicates, 5 min preincubation in 5 μM TDI-10229 or 10 nM TDI-11861, diluted 1:100 into inhibitor-free media
[8] = sheet Fig. 2a replicates, 5 μM TDI-10229 or 10 nM TDI-11861 present
[9] = sheet Fig. 2b replicates, 5 min preincubation in 5 μM TDI-10229 or 10 nM TDI-11861, diluted 1:100 into inhibitor-free media

Nc1nc(Cl)cc(-c2nn(C(F)F)cc2Cc2ccccc2OCCN2CCOC[C@@H]2CO)n1 [TDI-11861]
SPR sensorgram response ([1]; 4 nM, Time 1.8 s): 0.8425
SPR sensorgram response ([1]; 4 nM, Time 1.9 s): 0.8424
SPR sensorgram response ([1]; 4 nM, Time 2 s): 0.8404
SPR sensorgram response ([1]; 12.3 nM, Time 1.8 s): 0.7083
SPR sensorgram response ([1]; 12.3 nM, Time 1.9 s): 0.7083
SPR sensorgram response ([1]; 12.3 nM, Time 2 s): 0.7083
SPR sensorgram response ([1]; 37 nM, Time 1.8 s): 0.4389
SPR sensorgram response ([1]; 37 nM, Time 1.9 s): 0.4389
SPR sensorgram response ([1]; 37 nM, Time 2 s): 0.4389
SPR sensorgram response ([1]; 111 nM, Time 1.8 s): 1.6715
SPR sensorgram response ([1]; 111 nM, Time 1.9 s): 1.6715
SPR sensorgram response ([1]; 111 nM, Time 2 s): 1.5453
SPR sensorgram response ([1]; 333 nM, Time 1.8 s): 3.2073
SPR sensorgram response ([1]; 333 nM, Time 1.9 s): 3.4899
SPR sensorgram response ([1]; 333 nM, Time 2 s): 3.8103
cAMP, capacitation media (human sperm; [6]): 0.4536 pmol/10^6 sperm and 0.2982 pmol/10^6 sperm and 0.3279 pmol/10^6 sperm and 0.1875 pmol/10^6 sperm and 0.4476 pmol/10^6 sperm and 0.4575 pmol/10^6 sperm and 0.7152 pmol/10^6 sperm and 0.6672 pmol/10^6 sperm and 0.4645 pmol/10^6 sperm and 0.4351 pmol/10^6 sperm and 0.0606 pmol/10^6 sperm and 0.2667 pmol/10^6 sperm
cAMP, non-capacitation media (human sperm; [6]): 0.6403 pmol/10^6 sperm and 0.8029 pmol/10^6 sperm and 0.2251 pmol/10^6 sperm and 0.2037 pmol/10^6 sperm and 0.6722 pmol/10^6 sperm and 0.7415 pmol/10^6 sperm and 0.6566 pmol/10^6 sperm and 0.7427 pmol/10^6 sperm and 0.4253 pmol/10^6 sperm and 0.8706 pmol/10^6 sperm and 0.1092 pmol/10^6 sperm and 0.7462 pmol/10^6 sperm
cAMP, capacitation media (human sperm; [7]): 0.7435 pmol/10^6 sperm and 0.3279 pmol/10^6 sperm and 0.4575 pmol/10^6 sperm and 0.7152 pmol/10^6 sperm and 0.6672 pmol/10^6 sperm and 0.4645 pmol/10^6 sperm and 0.4351 pmol/10^6 sperm and 0.0606 pmol/10^6 sperm and 0.2667 pmol/10^6 sperm and 0.2982 pmol/10^6 sperm
cAMP, non-capacitation media (human sperm; [7]): 0.059 pmol/10^6 sperm and 0.2015 pmol/10^6 sperm and 0.452 pmol/10^6 sperm and 0.1712 pmol/10^6 sperm and 1.016 pmol/10^6 sperm and 0.658 pmol/10^6 sperm and 0.9025 pmol/10^6 sperm and 0.216 pmol/10^6 sperm and 0.84 pmol/10^6 sperm and 0.1317 pmol/10^6 sperm
Beat frequency, Basal (mouse sperm [2]; distal 10 μm of flagellum, 5 μM TDI-10229 or 10 nM TDI-11861, mean ± SEM): 14.8 ± 1.0 Hz
Beat frequency, + HCO3- (mouse sperm [2]; distal 10 μm, 25 mM NaHCO3, 5 μM TDI-10229 or 10 nM TDI-11861, mean ± SEM): 22.7 ± 1.6 Hz
cAMP, capacitation media (mouse sperm [3]; [8]): 0.4536 pmol/10^6 sperm and 0.2982 pmol/10^6 sperm and 0.3279 pmol/10^6 sperm and 0.1875 pmol/10^6 sperm and 0.4476 pmol/10^6 sperm and 0.4575 pmol/10^6 sperm and 0.7152 pmol/10^6 sperm and 0.6672 pmol/10^6 sperm and 0.4645 pmol/10^6 sperm and 0.4351 pmol/10^6 sperm and 0.0606 pmol/10^6 sperm and 0.2667 pmol/10^6 sperm
cAMP, non-capacitation media (mouse sperm [3]; [8]): 1 pmol/10^6 sperm and 0.8029 pmol/10^6 sperm and 0.2251 pmol/10^6 sperm and 0.2037 pmol/10^6 sperm and 0.6722 pmol/10^6 sperm and 0.7415 pmol/10^6 sperm and 0.6566 pmol/10^6 sperm and 0.7427 pmol/10^6 sperm and 0.4253 pmol/10^6 sperm and 0.8706 pmol/10^6 sperm and 0.1092 pmol/10^6 sperm and 0.7462 pmol/10^6 sperm
cAMP, capacitation media (mouse sperm [3]; [9]): 0.677 pmol/10^6 sperm and 1.0488 pmol/10^6 sperm and 0.28 pmol/10^6 sperm and 0.63 pmol/10^6 sperm and 0.972 pmol/10^6 sperm and 0.1159 pmol/10^6 sperm and 0.3305 pmol/10^6 sperm and 0.9745 pmol/10^6 sperm and 1.058 pmol/10^6 sperm
cAMP, non-capacitation media (mouse sperm [3]; [9]): 0.555 pmol/10^6 sperm and 1.0234 pmol/10^6 sperm (2×) and 0.88 pmol/10^6 sperm and 0.438 pmol/10^6 sperm and 0.1502 pmol/10^6 sperm and 1.06 pmol/10^6 sperm and 0.8915 pmol/10^6 sperm and 1.0835 pmol/10^6 sperm
capacitation-induced pY pattern (epididymal mouse sperm [4]; diluted 100 fold): remained blocked
capacitation-induced pY pattern (epididymal mouse sperm [4]; swim out sperm mixed with equal volume capacitation media): blocked
bicarbonate-induced cAMP response, sperm directly isolated (epididymal mouse sperm [5]; 50 mg/kg i.p.): prevented bicarbonate-induced increase in cAMP
inhibition of bicarbonate-induced cAMP elevation and motility after ex vivo dilution (epididymal mouse sperm [5]; 50 mg/kg i.p.): persisted following ex vivo dilution
bicarbonate-induced cAMP response, sperm measured directly (epididymal mouse sperm [5]; 50 mg/kg oral, 1 hour, cauda sperm): no bicarbonate-induced increase in cAMP
normalized cAMP, diluted (epididymal mouse sperm [5]; Fig. 3a replicates, 50 mg/kg oral gavage, 100-fold dilution into inhibitor-free media, capacitating relative to non-capacitated, 50 mg/kg): 1.404 and 1.468 and 0.846 and 0.4392 and 0.6198 and 0.8825 and 1.178 and 0.8649 and 1.043
normalized cAMP, non-diluted (epididymal mouse sperm [5]; Fig. 3a replicates, 50 mg/kg oral gavage, capacitating relative to non-capacitated sperm of same mouse, 12 minutes, 50 mg/kg): 1.2234 and 1.098 and 0.3601 and 0.9436 and 0.9025 and 0.6956 and 0.2677 and 0.09176 and 0.3627
normalize cAMP, diluted (epididymal mouse sperm [5]; Fig. 3c replicates, 50 mg/kg i.p., 100-fold dilution into inhibitor-free media, capacitating relative to non-capacitated, 50 mg/kg): 0.9454 and 0.4612 and 0.4886 and 0.7809 and 1.256 and 0.4688 and 0.8437 and 0.776 and 0.4914 and 0.7724 and 0.3623
normalize cAMP, non-diluted (epididymal mouse sperm [5]; Fig. 3c replicates, 50 mg/kg i.p., capacitating relative to non-capacitated sperm of same mouse, 12 minutes, 50 mg/kg): 0.1221 and 0.9832 and 1.008 and 0.7764 and 0.7982 and 0.2443 and 0.1415 and 0.1173 and 0.5249 and 1.087 and 1.4

Reference: PMC9929232, “On-demand male contraception via acute inhibition of soluble adenylyl cyclase” (Nature Communications, 2023)
